Measured values taken from patent US8889732B2, “Fused heterocyclic compounds and thrombopoietin receptor activators” (Nissan Chemical Industries, Ltd., priority 2009, dated 2014).

target: T1, human thrombopoietin receptor (c-mpl) (Homo sapiens, UniProt P40238); assay: Stimulation of proliferation of thrombopoietin-dependent cell line UT7/EPO-mpl (WST-8); type: cell-based; details: UT7/EPO-mpl cells
T1 construct: expressed in transfected cells
T1 sequence (P40238 26-635): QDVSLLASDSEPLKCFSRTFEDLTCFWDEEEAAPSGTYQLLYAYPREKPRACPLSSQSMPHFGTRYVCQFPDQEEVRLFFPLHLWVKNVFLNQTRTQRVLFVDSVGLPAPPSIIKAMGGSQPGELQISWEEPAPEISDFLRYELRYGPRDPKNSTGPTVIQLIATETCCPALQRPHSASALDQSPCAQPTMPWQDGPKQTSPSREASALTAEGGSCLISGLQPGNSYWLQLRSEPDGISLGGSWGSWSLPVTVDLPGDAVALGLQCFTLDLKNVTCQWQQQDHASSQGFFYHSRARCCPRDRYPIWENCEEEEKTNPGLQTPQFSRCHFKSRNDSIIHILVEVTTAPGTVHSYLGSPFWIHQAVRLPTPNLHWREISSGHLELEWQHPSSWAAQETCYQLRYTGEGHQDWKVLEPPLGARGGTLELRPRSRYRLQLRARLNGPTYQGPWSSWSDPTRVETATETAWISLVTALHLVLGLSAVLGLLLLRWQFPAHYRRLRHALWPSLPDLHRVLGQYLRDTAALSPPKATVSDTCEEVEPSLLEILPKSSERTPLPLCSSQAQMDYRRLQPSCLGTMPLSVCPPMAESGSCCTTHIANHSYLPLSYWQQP
Method: The responses of thrombopoietin receptor to the compounds of Synthetic Examples of the present invention were assayed using a human leukemic cell line, UT7/EPO-mpl.
(§1) UT7/EPO-mpl is a stable transformed cell line obtained by introducing into human leukemic cell line UT7/EPO a vector that induces expression of human thrombopoietin receptor (c-mpl) under control of cytomegalovirus immediate-early promoter by the method of Takatoku et al. (J. Biol. Chem., 272:7259-7263 (1997)). […] These two cell lines were subcultured in IMDM (Invitrogen) containing 10% fetal bovine serum (Thermo Electron or BioWest) using a CO2 incubator (5% CO2, 37° C.).
(§2) The subcultured cells described above were washed twice with PBS and suspended in IMDM containing 10% fetal bovine serum at a cell density of 6×10^4 cells/ml. The cell suspension was transferred to a 96-well tissue culture plate (CORNING) in 100-μl aliquots. Then either thrombopoietin (Pepro Tech EC) or the compound of Synthetic Examples dissolved in dimethyl sulfoxide were diluted 83-fold with IMDM containing 10% fetal bovine serum and added to the aforementioned cell suspension in 20-μl aliquots. The cell suspension was incubated in a CO2 incubator (5% CO2, 37° C.) for 4 days. Cell proliferation was assayed using WST-8 reagent (Kishida Chemical Co., Ltd.) according to instructions by the manufacturer. A 10-μl aliquot of 5 mM WST-8 reagent solution was added to each well of the tissue culture plate, and the plate was incubated at 37° C. for 4 hours. The formazan pigment generated was detected by measuring the absorbance at 450 nm with a 96-well microplate reader (Nihon Molecular Devices, Spectramax 190).

Proliferation of thrombopoietin-responsive UT7/EPO-mpl cells | Compound
stimulated | TPO: thrombopoietin (Pepro Tech EC), a cytokine consisting of 332 amino acids

same assay, conditions: concentration yielding growth rate corresponding to 50% of growth of UT-7/EPO-mpl in the presence of 10 ng/mL TPO; 4 days incubation, WST-8

EC50 [nM] | Compound
3.99 | C/C(=N\NC(=S)Nc1cccc(-c2nnn[nH]2)c1)c1csc(-c2ccc3c(c2)CCC3)c1O [compound 63]
4.42 | C/C(=N\NC(=S)Nc1ccc(-c2nnn[nH]2)cc1)c1csc(-c2ccc3c(c2)CCC3)c1O [compound 64]
5.65 | C/C(=N\NC(=S)Nc1cccc(-c2nnn[nH]2)c1)c1csc(-c2ccc3c(c2)CCO3)c1O [compound 65]
8.79 | C/C(=N\NC(=S)Nc1ccc(-c2nnn[nH]2)cc1)c1csc(-c2ccc3c(c2)CCO3)c1O [compound 66]
5.23 | C/C(=N\NC(=O)c1ccc(-c2nnn[nH]2)cc1)c1csc(-c2ccc3c(c2)CCCC3)c1O [compound 67]
22.5 | C/C(=N\NC(=O)c1ccc(-c2nnn[nH]2)cc1)c1csc(-c2ccc3c(c2)CCC3)c1O [compound 68]
0.357 | C/C(=N\NC(=O)c1ccc(C(=O)NCc2ccc(C(=O)NCCO)cc2)s1)c1csc(-c2ccc3c(c2)CCCC3)c1O [compound 69]
0.382 | C/C(=N\NC(=O)c1ccc(C(=O)NCc2ccc(C(=O)NCCO)cc2)s1)c1csc(-c2ccc3c(c2)CCC3)c1O [compound 70]
3.97 | C/C(=N\NC(=O)c1ccc(C(=O)NCc2ccc(C(=O)NCCO)cc2)s1)c1csc(-c2ccc3c(c2)CCO3)c1O [compound 71]

test system: UT7/EPO; assay: Proliferation of mother cell line UT7/EPO (no c-mpl); type: cell-based, human; details: UT7/EPO cells without c-mpl
Method: as §1
as §2, with “A 10-μl aliquot of 5 mM WST-8 reagent solution was added to each well of the tissue culture plate, and the plate was incubated at 37° C. for 4 hours.” left out

Compound | Effect on proliferation of UT7/EPO, the mother cell line
TPO: thrombopoietin (Pepro Tech EC), a cytokine consisting of 332 amino acids | no response
